In article PMC9728092 (RSC Advances, 2022):

Molecular target: AChE (Homo sapiens, UniProt P22303)
Experiment: AChE inhibitory assay in vitro
Type: biochemical

Chain of AChE (P22303 32-614): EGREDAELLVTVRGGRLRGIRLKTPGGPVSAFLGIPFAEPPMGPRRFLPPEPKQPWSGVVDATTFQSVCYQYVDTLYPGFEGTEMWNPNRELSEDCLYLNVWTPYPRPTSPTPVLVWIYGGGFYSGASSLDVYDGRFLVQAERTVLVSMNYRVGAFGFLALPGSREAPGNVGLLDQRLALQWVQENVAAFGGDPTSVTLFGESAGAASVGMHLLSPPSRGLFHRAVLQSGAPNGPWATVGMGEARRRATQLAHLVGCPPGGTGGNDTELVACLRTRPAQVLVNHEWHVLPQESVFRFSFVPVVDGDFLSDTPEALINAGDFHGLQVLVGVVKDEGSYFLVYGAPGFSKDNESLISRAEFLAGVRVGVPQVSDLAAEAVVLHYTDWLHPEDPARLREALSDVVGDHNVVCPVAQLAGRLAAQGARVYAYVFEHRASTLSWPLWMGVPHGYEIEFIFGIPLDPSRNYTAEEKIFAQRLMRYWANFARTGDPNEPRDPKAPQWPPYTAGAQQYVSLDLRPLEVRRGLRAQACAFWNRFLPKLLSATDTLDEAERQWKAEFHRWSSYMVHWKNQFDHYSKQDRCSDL

| SMILES | IC50 [µM] |
| --- | --- |
| O=c1c(O)c(-c2ccc(O)cc2)oc2cc(O)cc(O)c12 [Compound 8, kaempferol] | 17.9 ± 0.18 |
| O=c1c(O)c(-c2ccc(O)c(O)c2)oc2cc(O)cc(O)c12 [Compound 9, quercetin] | 3.96 ± 0.27 |
| O=C1c2c(O)cc(O)cc2O[C@H](c2ccc(O)cc2)[C@H]1O [Compound 10, dihydrokaempferol] | > 50 |
